Measurements published in publication PMC10819888, “Benzimidazole-Based Derivatives as Apoptotic Antiproliferative Agents: Design, Synthesis, Docking, and Mechanistic Studies” (Molecules, 2024).

Legend:
RPMI-8226 = assay: NCI-60 five-dose assay; type: cell-based, human; details: RPMI-8226 (Leukemia), 48 h
HL-60(TB) = assay: NCI-60 five-dose assay; type: cell-based, human; details: HL-60(TB) (Leukemia), 48 h
K-562 = assay: NCI-60 five-dose assay; type: cell-based, human; details: K-562 (Leukemia), 48 h
A549/ATCC = assay: NCI-60 five-dose assay; type: cell-based, human; details: A549/ATCC (Non-Small Cell Lung Cancer), 48 h
NCI-H23 = assay: NCI-60 five-dose assay; type: cell-based, human; details: NCI-H23 (Non-Small Cell Lung Cancer), 48 h
HCC-2998 = assay: NCI-60 five-dose assay; type: cell-based, human; details: HCC-2998 (Colon Cancer), 48 h
HCT-116 = assay: NCI-60 five-dose assay; type: cell-based, human; details: HCT-116 (Colon Cancer), 48 h
HCT-15 = assay: NCI-60 five-dose assay; type: cell-based, human; details: HCT-15 (Colon Cancer), 48 h
KM12 = assay: NCI-60 five-dose assay; type: cell-based, human; details: KM12 (Colon Cancer), 48 h
SF-268 = assay: NCI-60 five-dose assay; type: cell-based, human; details: SF-268 (CNS Cancer), 48 h
SF-295 = assay: NCI-60 five-dose assay; type: cell-based, human; details: SF-295 (CNS Cancer), 48 h
SK-MEL-5 = assay: NCI-60 five-dose assay; type: cell-based, human; details: SK-MEL-5 (Melanoma), 48 h
OVCAR-4 = assay: NCI-60 five-dose assay; type: cell-based, human; details: OVCAR-4 (Ovarian Cancer), 48 h
OVCAR-5 = assay: NCI-60 five-dose assay; type: cell-based, human; details: OVCAR-5 (Ovarian Cancer), 48 h
SK-OV-3 = assay: NCI-60 five-dose assay; type: cell-based, human; details: SK-OV-3 (Ovarian Cancer), 48 h
A498 = assay: NCI-60 five-dose assay; type: cell-based, human; details: A498 (Renal Cancer), 48 h
SN12C = assay: NCI-60 five-dose assay; type: cell-based, human; details: SN12C (Renal Cancer), 48 h
UO-31 = assay: NCI-60 five-dose assay; type: cell-based, human; details: UO-31 (Renal Cancer), 48 h
PC-3 = assay: NCI-60 five-dose assay; type: cell-based, human; details: PC-3 (Prostate Cancer), 48 h
MCF7 = assay: NCI-60 five-dose assay; type: cell-based, human; details: MCF7 (Breast Cancer), 48 h
MDA-MB-231 = assay: NCI-60 five-dose assay; type: cell-based, human; details: MDA-MB-231 (Breast Cancer), 48 h
[1] = tested on: Non-Small Cell Lung Cancer subpanel; assay: NCI-60 five-dose assay, subpanel; type: cell-based, human
Melanoma subpanel = assay: NCI-60 five-dose assay, subpanel; type: cell-based, human
Ovarian Cancer subpanel = assay: NCI-60 five-dose assay, subpanel; type: cell-based, human
Renal Cancer subpanel = assay: NCI-60 five-dose assay, subpanel; type: cell-based, human
BRAF^V600E = assay: biochemical
[2] = Homo sapiens, read-out: GI50 Conc. per Cell Line
[3] = Homo sapiens, read-out: LC50 (the source's name)

Chain of BRAF^V600E (P28028 whole entry V585E): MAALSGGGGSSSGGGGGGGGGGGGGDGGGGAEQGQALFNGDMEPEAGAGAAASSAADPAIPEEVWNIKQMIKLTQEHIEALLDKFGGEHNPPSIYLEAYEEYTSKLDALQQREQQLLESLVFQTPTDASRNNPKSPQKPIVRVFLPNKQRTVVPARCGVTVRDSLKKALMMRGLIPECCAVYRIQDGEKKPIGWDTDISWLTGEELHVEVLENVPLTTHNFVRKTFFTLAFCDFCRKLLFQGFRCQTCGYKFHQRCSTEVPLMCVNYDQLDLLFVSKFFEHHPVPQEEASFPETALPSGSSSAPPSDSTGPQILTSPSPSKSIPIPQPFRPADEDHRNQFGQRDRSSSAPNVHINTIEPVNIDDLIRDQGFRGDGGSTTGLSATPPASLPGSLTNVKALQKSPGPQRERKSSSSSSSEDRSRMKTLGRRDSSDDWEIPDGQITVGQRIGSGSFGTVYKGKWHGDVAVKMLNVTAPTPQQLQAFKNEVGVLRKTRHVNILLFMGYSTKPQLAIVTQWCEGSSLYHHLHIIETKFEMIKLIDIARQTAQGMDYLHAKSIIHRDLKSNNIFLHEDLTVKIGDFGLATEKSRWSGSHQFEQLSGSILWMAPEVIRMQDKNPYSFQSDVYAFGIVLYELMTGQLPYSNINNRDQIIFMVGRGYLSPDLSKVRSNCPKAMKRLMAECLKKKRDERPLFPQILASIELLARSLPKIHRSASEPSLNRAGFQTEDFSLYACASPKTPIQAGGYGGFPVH

O=C(NN=Cc1ccc(Cl)cc1)c1ccc2[nH]c(-c3ccc(Cl)cc3)nc2c1 [Compound 4e, N′-(4-Chlorobenzylidene)-2-(4-chlorophenyl)-1H-benzimidazole-5-carbohydrazide]
GI50 (RPMI-8226; [2]): 1.16 µM
CC50 (RPMI-8226; [3]): 16.5 µM
TGI (RPMI-8226): 3.52 µM
TGI (HL-60(TB)): 6.53 µM
GI50 (HL-60(TB); [2]): 1.85 µM
CC50 (HL-60(TB); [3]): 54.8 µM
GI50 (K-562; Homo sapiens, K562, read-out: GI50 Conc. per Cell Line): 0.969 µM
CC50 (K-562; Homo sapiens, K562, read-out: LC50 (the source's name)): 12.3 µM
TGI (K-562): 3.23 µM
TGI (A549/ATCC): 4.53 µM
GI50 (A549/ATCC; [2]): 2.16 µM
CC50 (A549/ATCC; [3]): 9.52 µM
GI50 (NCI-H23; [2]): 1.93 µM
CC50 (NCI-H23; [3]): 10.8 µM
TGI (NCI-H23): 4.43 µM
TGI (HCC-2998): 3.44 µM
GI50 (HCC-2998; [2]): 1.82 µM
CC50 (HCC-2998; [3]): 6.5 µM
TGI (HCT-116): 3.51 µM
GI50 (HCT-116; [2]): 1.45 µM
CC50 (HCT-116; [3]): 8.52 µM
TGI (HCT-15): 3.03 µM
GI50 (HCT-15; [2]): 1.42 µM
CC50 (HCT-15; [3]): 6.46 µM
GI50 (KM12; [2]): 2.03 µM
CC50 (KM12; [3]): 9.8 µM
TGI (KM12): 4.46 µM
GI50 (SF-268; [2]): 2.08 µM
CC50 (SF-268; [3]): 9.09 µM
TGI (SF-268): 4.35 µM
GI50 (SF-295; [2]): 1.86 µM
CC50 (SF-295; [3]): 6.56 µM
TGI (SF-295): 3.50 µM
GI50 (SK-MEL-5; [2]): 1.81 µM
CC50 (SK-MEL-5; [3]): 6.33 µM
TGI (SK-MEL-5): 3.39 µM
GI50 (OVCAR-4; [2]): 1.74 µM
CC50 (OVCAR-4; [3]): 6.23 µM
TGI (OVCAR-4): 3.29 µM
GI50 (OVCAR-5; [2]): 1.85 µM
CC50 (OVCAR-5; [3]): 8.52 µM
TGI (OVCAR-5): 3.97 µM
GI50 (SK-OV-3; [2]): 1.79 µM
CC50 (SK-OV-3; [3]): 11 µM
TGI (SK-OV-3): 4.31 µM
TGI (A498): 4.94 µM
GI50 (A498; [2]): 1.74 µM
CC50 (A498; [3]): 19.6 µM
GI50 (SN12C; [2]): 1.96 µM
CC50 (SN12C; [3]): 9.26 µM
TGI (SN12C): 4.26 µM
GI50 (UO-31; [2]): 1.57 µM
CC50 (UO-31; [3]): 5.67 µM
TGI (UO-31): 2.99 µM
LC50 (PC-3; Homo sapiens): 7.05 µM
GI50 (PC-3; [2]): 1.55 µM
TGI (PC-3): 3.30 µM
GI50 (MCF7; [2]): 1.15 µM
CC50 (MCF7; [3]): 5.73 µM
TGI (MCF7): 2.56 µM
GI50 (MDA-MB-231; [2]): 1.85 µM
CC50 (MDA-MB-231; [3]): 7.67 µM
TGI (MDA-MB-231): 3.77 µM
GI50 ([1]; Homo sapiens, Non-Small Cell Lung Cancer, average sensitivity of all subpanel cell lines, read-out: GI50 Subpanel MID b): 1.9 µM
GI50 Selectivity Ratio (MID a/MID b) ([1]; Non-Small Cell Lung Cancer subpanel): 0.94
GI50 (Melanoma subpanel; Homo sapiens, Melanoma, average sensitivity of all subpanel cell lines, read-out: GI50 Subpanel MID b): 1.77 µM
GI50 Selectivity Ratio (MID a/MID b) (Melanoma subpanel; Melanoma subpanel): 1.01
GI50 (Ovarian Cancer subpanel; Homo sapiens, Ovarian Cancer, average sensitivity of all subpanel cell lines, read-out: GI50 Subpanel MID b): 1.81 µM
GI50 Selectivity Ratio (MID a/MID b) (Ovarian Cancer subpanel; Ovarian Cancer subpanel): 0.99
GI50 (Renal Cancer subpanel; Homo sapiens, Renal Cancer, average sensitivity of all subpanel cell lines, read-out: GI50 Subpanel MID b): 1.77 µM
GI50 Selectivity Ratio (MID a/MID b) (Renal Cancer subpanel; Renal Cancer subpanel): 1.01
IC50 (BRAF^V600E): 0.2 ± 0.02 µM
